Laboratory results as given in ChEMBL document CHEMBL1129205, “Small peptide inhibitors of 47 mediated MAdCAM-1 adhesion to lymphocytes” (Bioorg Med Chem Lett, 1996).

Test system: HuT78
Assay: Compound was tested for inhibition of MAdCAM-1/alpha-4 beta-7 mediated cell adhesion to T-cell lymphoma, HUT78 cells
Format: functional, cell-based
Conditions: Homo sapiens

Molecule	IC50
CC(C)C[C@H](NC(=O)[C@H](CO)NC(=O)[C@@H](NC(=O)[C@H](CC(=O)O)NC(=O)[C@H](CC(C)C)NC(=O)CCCc1ccc2ccc3cccc4ccc1c2c34)[C@@H](C)O)C(N)=O	5 µM
CCCC(CCC)C(=O)N[C@@H](CC(C)C)C(=O)N[C@@H](CC(=O)O)C(=O)N[C@H](C(=O)N[C@@H](CO)C(=O)N[C@@H](CC(C)C)C(N)=O)[C@@H](C)O	> 1000 µM
CC(C)C[C@H](NC(=O)[C@H](CO)NC(=O)[C@@H](NC(=O)[C@H](CC(=O)O)NC(=O)[C@H](CC(C)C)NC(=O)Cc1ccccc1)[C@@H](C)O)C(N)=O	> 1000 µM
CC(C)C[C@H](NC(=O)[C@H](CO)NC(=O)[C@@H](NC(=O)[C@H](CC(=O)O)NC(=O)[C@H](CC(C)C)NC(=O)C1c2ccccc2-c2ccccc21)[C@@H](C)O)C(N)=O	18.6 µM
CC(C)C[C@H](NC(=O)[C@H](CO)NC(=O)[C@@H](NC(=O)[C@H](CC(=O)O)NC(=O)[C@H](CC(C)C)NC(=O)C(c1ccccc1)c1ccccc1)[C@@H](C)O)C(N)=O	13.4 µM
CC(C)C[C@H](NC(=O)[C@H](CO)NC(=O)[C@@H](NC(=O)[C@H](CC(=O)O)NC(=O)[C@H](CC(C)C)NC(=O)C(C1CCCCC1)C1CCCCC1)[C@@H](C)O)C(N)=O	> 1000 µM

Test system: not listed separately
Assay: Inhibition of MAdCAM-1/alpha-4 beta7-mediated cell adhesion to T-cell lymphoma, HUT78 cells at 500 uM
Format: functional
Conditions: not given

Molecule	Inhibition
CC(=O)N[C@@H](CCCN=C(N)N)C(=O)NCC(=O)N[C@@H](CC(C)C)C(=O)N[C@@H](CC(=O)O)C(=O)N[C@H](C(=O)N[C@@H](CO)C(=O)N[C@@H](CC(C)C)C(=O)NCC(N)=O)[C@@H](C)O (stereo in doubt; 10)	36%
CC(=O)N[C@@H](CCCN=C(N)N)C(=O)NCC(=O)N[C@@H](CC(C)C)C(=O)N[C@@H](CC(=O)O)C(=O)N[C@H](C(=O)N[C@@H](CO)C(=O)N[C@@H](CC(C)C)C(=O)NCC(N)=O)[C@@H](C)O (stereo in doubt; 4)	75%

Same assay, conditions: HuT78

Molecule	inhibition at 500 µM
Ac-VHWRGLDT-NH2	48%
Ac-LYTSL-NH2	0%
CC(C)C[C@H](NC(=O)[C@H](CO)NC(=O)[C@@H](NC(=O)[C@H](CC(=O)O)NC(=O)[C@H](CC(C)C)NC(=O)CCCc1ccc2ccc3cccc4ccc1c2c34)[C@@H](C)O)C(N)=O	5%
Ac-WRGLDTSL-NH2	52%
Ac-LATSL-NH2	0%
Ac-GLDTSLGS-NH2	28%
Ac-HWRGLDTS-NH2	46%
Ac-HWRGLDTSLGSV-NH2	71%
Ac-RVHWAGLD-NH2	0%
Ac-DTSLGSVQ-NH2	0%
Ac-WRGLDTSLGS-NH2	71%
Ac-AAASL-NH2	0%
Ac-LNTSL-NH2	0%
Ac-ADTSL-NH2	3%
CC(C)C[C@H](NC(=O)[C@H](CO)NC(=O)[C@@H](NC(=O)[C@H](CC(=O)O)NC(=O)[C@H](CC(C)C)NC(=O)C1c2ccccc2-c2ccccc21)[C@@H](C)O)C(N)=O	18.6%
CC(C)C[C@H](NC(=O)[C@H](CO)NC(=O)[C@@H](NC(=O)[C@H](CC(=O)O)NC(=O)[C@H](CC(C)C)NC(=O)C(c1ccccc1)c1ccccc1)[C@@H](C)O)C(N)=O	13.4%
CC(=O)N[C@@H](CC(C)C)C(=O)N[C@H](CC(=O)O)C(=O)N[C@H](C(=O)N[C@@H](CO)C(=O)N[C@@H](CC(C)C)C(N)=O)[C@@H](C)O	0%
Ac-RVHWRGLDTSLGSVQ-NH2	88%
Ac-LDTSLGSV-NH2	16%
